Source: US20050106173A1, “METHODS AND COMPOSITIONS FOR TREATING MALE SEXUAL DYSFUNCTION” (priority 2003, published 2005)

Tests used:
Type in all cases: in vivo
[1] = tested on: castrated Wistar rats; assay: Blood testosterone concentration by radio-immunoassay (RIA) in castrated rats; details: once daily for 30 days, blood after the erection test on day 31, RIA
Method: (§1) To test the ability of the EMF-treated AS2.502 cells to improve male sexual function, hormone levels, and sexual organ development, 50 healthy adult male Wistar rats (about 150-180 g body weight, 8-10 weeks old) were selected. Ten rats were randomly selected to be the normal control group, CK1 (uncastrated rats). Under anesthesia with pentobarbital (5%, at 45 mg/kg body weight), both testes (including the epididymis) of each of the remaining 40 rats were removed under sterile conditions. Immediately after castration, Penicillin G was injected at 20,000 U/kg body weight once daily for five consecutive days. The castrated rats were then randomly divided into four equal groups, designated as AY (for treatment with the activated yeast composition), NY (for treatment with the control yeast composition), CK2 (for treatment with testosterone propionate), and CK3 (for treatment with saline). Each rat was kept separately. The activated yeast composition was administered to the AY rats at 1.2 ml/kg body weight once daily for 30 days. The control yeast composition was administered to the NY rats and saline was administered to the CK3 rats at the same dosage. […]
Each rat was sacrificed after the erection test. Blood samples were collected from each rat, and the blood concentration of testosterone was determined by the standard radio-immunoassay (RIA) method.

[2] = tested on: castrated male Wistar rats; assay: Sexual activity of castrated male rats caged with female rats (mounting, sniffing and licking frequency); details: once daily for 30 days (yeast 1.2 ml/kg intragastric; testosterone propionate 2 mg/kg i.m.), day 29, two female rats in cage
Method: as §1, with “100-120” for “150-180”, “6-8” for “8-10”, “days.” for “days. The control yeast composition was administered to the NY rats and saline was administered to the CK3 rats at the same dosage.”
On the twenty-ninth day of the experiment, two female rats (100-120 g, 6-8 weeks old) were put into the same cage as each male rat and kept there for 30 minutes. The frequency of the male rat's sniffing and licking of the female rats, and the frequency of the male rat's mounting of the female rats were recorded in Table 2.

[3] = tested on: castrated male Wistar rats; assay: Wet weight of glandulae preputiales, seminal vesicle and prostate of castrated rats; details: once daily for 30 days, sacrificed day 31
Method: as §1, with “100-120” for “150-180”, “6-8” for “8-10”
Each male rat was sacrificed on the thirty-first day. […] The wet weight of the prostate and seminal vesicle was recorded in Table 2. […] The wet weight of the glandulae preputiales was also recorded in Table 2.

[4] = tested on: castrated Wistar rats; assay: Erectile function by electrical stimulation (erection lag) in castrated rats; details: once daily for 30 days, day 31, stimulator 55 Hz and 4.5 mA
Method: as §1
On the thirty-first day of the experiment, an electrical stimulator was used to measure the erectile function of the rats. […] The time needed for the penis to achieve erection (“the erection lag”) was recorded in Table 3.

CCC(=O)O[C@H]1CC[C@H]2[C@@H]3CCC4=CC(=O)CC[C@]4(C)[C@H]3CC[C@]12C [testosterone propionate]
Testosterone Levels [1]: 124.17 ± 67.65 ng/dL | Mounting Frequency Within a 30 min Period [2]: 12.3 ± 4.6 | Sniffing & Licking Frequency Within a 30 min Period [2]: 22.7 ± 4.6 | Glandulae Preputiales (wet weight) [3]: 89.5 ± 14.6 mg | Seminal Vesicle and Prostate (wet weight) [3]: 198.7 ± 42.6 mg | Erection Lag [4]: 19.3 ± 14.6 s
